Results taken from patent US6608082B1, “Treatment of erectile dysfunction using isoquinoline compound melanocortin receptor ligands” (Lion Bioscience AG, priority 1998, dated 2003).
Like-named read-outs stand apart in the source and are kept apart here.

Legend:
MCR-1 = molecular target: T1, MCR-1 (Homo sapiens, UniProt Q01726); test: Melanocortin receptor binding assay, competition with 125I-HP 467, HEK 293 cells expressing hMCR-1
T1 construct: expressed in transfected cells; host or cells: HEK 293
T1 sequence (Q01726 whole entry): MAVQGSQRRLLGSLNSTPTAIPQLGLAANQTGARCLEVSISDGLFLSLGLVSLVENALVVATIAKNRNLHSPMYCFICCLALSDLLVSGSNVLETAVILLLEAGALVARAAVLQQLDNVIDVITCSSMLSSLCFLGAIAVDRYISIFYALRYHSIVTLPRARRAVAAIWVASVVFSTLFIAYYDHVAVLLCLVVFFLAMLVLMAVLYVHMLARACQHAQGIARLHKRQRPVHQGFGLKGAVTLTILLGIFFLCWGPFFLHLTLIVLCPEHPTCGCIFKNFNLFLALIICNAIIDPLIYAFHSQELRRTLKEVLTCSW
Procedure, shortened: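 Test compounds compete on intact HEK 293 cells carrying hMCR-1 (2×10^4 per tube) or hMCR-4 (4×10^3 per tube), suspended in PBS, 10% calf serum, 1 mM CaCl2.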

MCR-4 = molecular target: T2, MCR-4 (Homo sapiens, UniProt P32245); test: Melanocortin receptor binding assay, competition with 125I-HP 467, HEK 293 cells expressing hMCR-4
T2 construct: expressed in transfected cells; host or cells: HEK 293
T2 sequence (P32245 whole entry): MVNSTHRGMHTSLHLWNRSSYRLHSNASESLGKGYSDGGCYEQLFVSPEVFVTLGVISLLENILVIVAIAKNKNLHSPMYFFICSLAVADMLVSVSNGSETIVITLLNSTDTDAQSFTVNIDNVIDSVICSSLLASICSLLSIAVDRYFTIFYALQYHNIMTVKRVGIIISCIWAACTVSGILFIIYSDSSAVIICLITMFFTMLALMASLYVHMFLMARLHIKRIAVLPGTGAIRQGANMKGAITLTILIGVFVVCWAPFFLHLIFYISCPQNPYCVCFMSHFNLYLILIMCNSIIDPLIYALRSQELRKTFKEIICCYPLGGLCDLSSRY
Method: All cell culture media and reagents were obtained from GibcoBRL (Gaithersburg Md.), except for COSMIC CALF SERUM (HyClone; Logan Utah).
Cells were suspended in PBS, 10% COSMIC CALF SERUM and 1 mM CaCl2. Cell suspensions were prepared at a density of 2×10^4 cells/ml for HEK 293 cells expressing hMCR-3, hMCR-4 or hMCR-5, and 1×10^5 cells/ml for HEK 293 cells expressing hMCR-1. Suspensions were placed in a water bath and allowed to warm to 37° C. for 1 hr.
Binding assays were performed in a total volume of 250 μl for HEK 293 cells. […] To each tube was added 4×10^3 HEK 293 cells expressing hMCR-3, hMCR-4 or hMCR-5, or 2×10^4 cells expressing hMCR-1. Assays were incubated for 2.5 hr at 37° C.
GF/B filter plates were prepared by soaking for at least one hour in 5 mg/ml BSA and 10 mM CaCl2. Assays were filtered using a Brandel 96-well cell harvester (Brandel Inc.; Gaithersburg, Md.). The filters were washed four times with cold 50 mM Tris, pH 7.4, the filter plates were dehydrated for 2 hr and 35 μl of MICROSCINT was added to each well. Filter plates were counted using a Packard Topcount (Packard Instrument Co.) and data analyzed using GraphPad PRISM v2.0 (GraphPad Software Inc.; San Diego Calif.) and Microsoft EXCEL v5.0a (Microsoft Corp.; Redmond Wash.).
To assay isoquinoline compounds, binding assays were performed in duplicate in a 96 well format. […] A 0.2 ml aliquot of suspended cells was added to each well to give the cell numbers indicate above, and the cells were incubated at 37° C. for 2.5 hr. Cells were harvested on GF/B filter plates as described above and counted.

[1] = inhibition of binding of 125I-HP 467, HEK 293 cells expressing MCR-1; TRG 2414 library; read-out: MC-1 IC50
[2] = inhibition of binding of 125I-HP 467, HEK 293 cells expressing MCR-4; TRG 2414 library; read-out: MC-4 IC50
[3] = inhibition of binding of 125I-HP 467, HEK 293 cells expressing MCR-4; TRG 2414 library
[4] = inhibition of binding of 125I-HP 467, HEK 293 cells expressing MCR-1; read-out: MC-1 IC50
[5] = inhibition of binding of 125I-HP 467, HEK 293 cells expressing MCR-4; read-out: MC-4 IC50
[6] = TRG 2414 library; inhibition of binding of 125I-HP 467, HEK 293 cells expressing MCR-1; read-out: MC-1 IC50
[7] = TRG 2414 library; inhibition of binding of 125I-HP 467, HEK 293 cells expressing MCR-4; read-out: MC-4 IC50

SMILES	IC50 (MCR-1; [1]) [µM]	IC50 (MCR-4; [2]) [µM]	IC50 (MCR-1; [6]) [µM]	IC50 (MCR-4; [7]) [µM]	other results
NCC(N)CCCCN1Cc2ccccc2C(CNCc2ccccc2C(F)(F)F)C1c1cccc(Oc2ccccc2)c1 (mixture of isomers) [TRG 2414-81]	10.8	9.87			
NCC(CCCCN1Cc2ccccc2C(CNCc2ccccc2C(F)(F)F)C1c1cccc(Oc2ccccc2)c1)NCCc1ccccc1 (mixture of isomers) [TRG 2414-82]		42.9			MC-1 IC50 (MCR-1; inhibition of binding of 125I-HP 467, HEK 293 cells expressing MCR-1; TRG 2414 library): no fit
CCOc1ccccc1CNCC1c2ccccc2CN(CCCCC(N)CN)C1c1cccc(Oc2ccccc2)c1 (mixture of isomers) [TRG 2414-85]	2.43	2.17			
COc1ccccc1CCNCC1c2ccccc2CN(CCCCC(CN)NCC(C)c2ccc(CC(C)C)cc2)C1c1cccc(Oc2ccccc2)c1 (mixture of isomers) [TRG 2414-92]	42.6				MC-4 IC50 (MCR-4; [3]): no fit
COc1cccc(CNCC2c3ccccc3CN(CCCCC(N)CN)C2c2cccc(Oc3ccccc3)c2)c1 (mixture of isomers) [TRG 2414-97]	4.51	2.5			
COc1cccc(CNCC2c3ccccc3CN(CCCCC(CN)NCCc3ccccc3)C2c2cccc(Oc3ccccc3)c2)c1 (mixture of isomers) [TRG 2414-98]	13.2	9.61			
COc1ccc(CNCC2c3ccccc3CN(CCCCC(CN)NCc3ccccc3)C2c2cccc(Oc3ccccc3)c2)cc1 (mixture of isomers) [TRG 2414-103]	8.13	7.48			
NCC(CCCCN1Cc2ccccc2C(CNC2CCCCC2)C1c1cccc(Oc2ccccc2)c1)NCCc1ccccc1 (mixture of isomers) [TRG 2414-118]	8.44	4.49			
CCOc1ccccc1CNCC1c2ccccc2CN(CCCCC(CN)NCC(C)c2ccc(CC(C)C)cc2)C1c1ccc(Oc2ccccc2)cc1 (mixture of isomers) [TRG 2414-128]	25				MC-4 IC50 (MCR-4; [3]): no fit
COc1ccccc1CCNCC1c2ccccc2CN(CCCCC(N)CN)C1c1ccc(Oc2ccccc2)cc1 (mixture of isomers) [TRG 2414-129]	0.146	5.58			
COc1ccc(CCNCC2c3ccccc3CN(CCCCC(CN)NCCc3ccccc3)C2c2ccc(Oc3ccccc3)cc2)cc1 (mixture of isomers) [TRG 2414-146]	8.21	16.8			
NCC(CCCCN1Cc2ccccc2C(CNC2CCCCC2)C1c1ccc(Oc2ccccc2)cc1)NCCc1ccccc1 (mixture of isomers) [TRG 2414-158]	2.74	6.71			
CCCOc1ccc(C2C(CNCc3ccccc3C(F)(F)F)c3ccccc3CN2CCCCC(CN)NCCc2ccccc2)cc1 (mixture of isomers) [TRG 2414-162]	19.1	18.4			
CCCOc1ccc(C2C(CNCc3ccccc3OCC)c3ccccc3CN2CCCCC(N)CN)cc1 (mixture of isomers) [TRG 2414-165]	0.994	5.06			
CCCOc1ccc(C2C(CNCCc3cccc(Cl)c3)c3ccccc3CN2CCCCC(CN)NCCc2ccccc2)cc1 (mixture of isomers) [TRG 2414-174]	4.3	5.42			
CCCOc1ccc(C2C(CNCc3cccc(OC)c3)c3ccccc3CN2CCCCC(N)CN)cc1 (mixture of isomers) [TRG 2414-177]	0.739	5.07			
CCCOc1ccc(C2C(CNCc3cccc(OC)c3)c3ccccc3CN2CCCCC(CN)NCC(C)c2ccc(CC(C)C)cc2)cc1 (mixture of isomers) [TRG 2414-180]	8.19	47.1			
CCCOc1ccc(C2C(CO)c3ccccc3CN2CCCC(CN)NCCC2CCCCC2)cc1 (mixture of isomers) [TRG 2415-4]					IC50 (MCR-1; [4]): 2.57 µM; IC50 (MCR-4; [5]): 2.55 µM
CCCCOc1ccc(C2C(CN)c3ccccc3CN2CCCCC(CN)NCC)cc1 (mixture of isomers) [TRG 2415-18]					IC50 (MCR-1; [4]): 0.306 µM; IC50 (MCR-4; [5]): 7.95 µM
Cc1ccc(CNC(CN)CCCCN2Cc3ccccc3C(CNCCc3ccccc3)C2c2cc(C(F)(F)F)cc(C(F)(F)F)c2)cc1 (mixture of isomers) [TRG 2421-2]					IC50 (MCR-1; [4]): 3.73 µM; IC50 (MCR-4; [5]): 3.03 µM
NCC(CCCCN1Cc2ccccc2C(CNCCc2ccc(O)cc2)C1c1cc(C(F)(F)F)cc(C(F)(F)F)c1)NCc1ccc(Br)cc1 (mixture of isomers) [TRG 2421-8]					IC50 (MCR-1; [4]): 5 µM; IC50 (MCR-4; [5]): 5.99 µM
COc1ccc(CCNCC2c3ccccc3CN(CCCCC(CN)NCc3ccc(C)cc3)C2c2cc(C(F)(F)F)cc(C(F)(F)F)c2)cc1OC (mixture of isomers) [TRG 2421-17]					IC50 (MCR-1; [4]): 2.06 µM; IC50 (MCR-4; [5]): 0.83 µM

SMILES	IC50 (MCR-1; [1]) [µM]	IC50 (MCR-4; [2]) [µM]	IC50 (MCR-1; [6]) [µM]	IC50 (MCR-4; [7]) [µM]	other results
CCNc1ccc(C2C(CN)c3ccccc3CN2CCC[C@@H](CN)NCCCCOc2ccccc2)cc1 (some centres unmarked) [2424#2]					IC50 (MCR-1; [4]): 0.05 µM; IC50 (MCR-4; [5]): 7.77 µM
CCNc1ccc(C2C(CNCCc3ccccc3)c3ccccc3CN2CCC[C@@H](CN)NCCCCOc2ccccc2)cc1 (some centres unmarked) [2424#5]					IC50 (MCR-1; [4]): 0.05 µM; IC50 (MCR-4; [5]): 1.51 µM
CCNc1ccc(C2C(CN)c3ccccc3CN2CCCC[C@@H](CN)NCCCCOc2ccccc2)cc1 (some centres unmarked) [2424#8]					IC50 (MCR-1; [4]): 0.22 µM; IC50 (MCR-4; [5]): 5.18 µM
CCNc1ccc(C2C(CNCCc3ccccc3)c3ccccc3CN2CCCC[C@@H](CN)NCCCCOc2ccccc2)cc1 (some centres unmarked) [2424#11]					IC50 (MCR-1; [4]): 0.21 µM; IC50 (MCR-4; [5]): 3.52 µM
CCCOc1ccc(C2C(CNCCc3ccc(OC)cc3)c3ccccc3CN2CCCCC(N)CN)cc1 (centres unmarked) [Cmpd 185]			0.542	4.26	
CCCOc1ccc(C2C(CNCCc3ccc(OC)cc3)c3ccccc3CN2CCCCC(CN)NCCc2ccccc2)cc1 (centres unmarked) [Cmpd 186]			2.81	8.09	
CCCOc1ccc(C2C(CNCCc3ccc(OC)cc3)c3ccccc3CN2CCCCC(CN)NCc2ccccc2)cc1 (centres unmarked) [Cmpd 187]			1.07	1.47	
CCCOc1ccc(C2C(CNCCc3ccc(OC)cc3)c3ccccc3CN2CCCCC(CN)NCC(C)c2ccc(CC(C)C)cc2)cc1 (centres unmarked) [Cmpd 188]			7.9	20	
CCCOc1ccc(C2C(CNCc3ccccc3)c3ccccc3CN2CCCCC(N)CN)cc1 (centres unmarked) [Cmpd 189]			0.869	2.31	
CCCOc1ccc(C2C(CNCc3ccccc3)c3ccccc3CN2CCCCC(CN)NCCc2ccccc2)cc1 (centres unmarked) [Cmpd 190]			1.44	5.42	
CCCOc1ccc(C2C(CNCc3ccccc3)c3ccccc3CN2CCCCC(CN)NCc2ccccc2)cc1 (centres unmarked) [Cmpd 191]			1.95	5.53	
CCCOc1ccc(C2C(CNC3CCCCCC3)c3ccccc3CN2CCCCC(N)CN)cc1 (centres unmarked) [Cmpd 193]			1.64	6.59	
CCCOc1ccc(C2C(CNC3CCCCCC3)c3ccccc3CN2CCCCC(CN)NCCc2ccccc2)cc1 (centres unmarked) [Cmpd 194]			3.86	5.09	
CCCOc1ccc(C2C(CNC3CCCCCC3)c3ccccc3CN2CCCCC(CN)NCc2ccccc2)cc1 (centres unmarked) [Cmpd 195]			1.38	4.07	
CCCOc1ccc(C2C(CNC3CCCCCC3)c3ccccc3CN2CCCCC(CN)NCC(C)c2ccc(CC(C)C)cc2)cc1 (centres unmarked) [Cmpd 196]			13.3	37	
CCCOc1ccc(C2C(CNC3CCCCC3)c3ccccc3CN2CCCCC(N)CN)cc1 (centres unmarked) [Cmpd 197]			0.419	12.6	
CCCOc1ccc(C2C(CNC3CCCCC3)c3ccccc3CN2CCCCC(CN)NCCc2ccccc2)cc1 (centres unmarked) [Cmpd 198]			3	3.68	
CCCOc1ccc(C2C(CNC3CCCCC3)c3ccccc3CN2CCCCC(CN)NCc2ccccc2)cc1 (centres unmarked) [Cmpd 199]			1.29	5.15	
CCCOc1ccc(C2C(CNC3CCCCC3)c3ccccc3CN2CCCCC(CN)NCC(C)c2ccc(CC(C)C)cc2)cc1 (centres unmarked) [Cmpd 200]			7.59	16.8	
NCC(N)CCCCN1Cc2ccccc2C(CNCc2ccccc2C(F)(F)F)C1c1ccccc1Br (centres unmarked) [Cmpd 201]					MC-1 IC50 (MCR-1; TRG 2414 library; inhibition of binding of 125I-HP 467, HEK 293 cells expressing MCR-1): no fit; MC-4 IC50 (MCR-4; TRG 2414 library; inhibition of binding of 125I-HP 467, HEK 293 cells expressing MCR-4): no fit
NCC(CCCCN1Cc2ccccc2C(CNCc2ccccc2C(F)(F)F)C1c1ccccc1Br)NCCc1ccccc1 (centres unmarked) [Cmpd 202]			21.8	34.1	
